From patent publication US7544689B2, “Purine derivatives” (Cyclacel Limited, priority 2002, dated 2009)

What was measured:
CDK2/cyclin E = target: T1, CDK2/cyclin E (Homo sapiens, UniProt P24941); experiment: Kinase assay, CDK2/cyclin E inhibition; assay type: biochemical
T1 construct: His6; made in house; host or cells: Sf9 insect cells (baculovirus)
Description: (§1) Recombinant cyclin DI was expressed in E. coli. Proteins were purified by metal chelate affnity chromatography to greater than 90% homogeneity. […] Reactions were stopped on ice, followed by filtration through p81 filterplates or GF/C filterplates (for CDK4) (Whatman Polyfiltronics, Kent, UK), except for CDK7 where, after stopping reaction on ice, 10 μL of 10 mg/mL avidin was added to each well and further incubated for 10 min followed by filtration as per CDK2 assay. After washing 3 times with 75 mM aq orthophosphoric acid, plates were dried, scintillant added and incorporated radioactivity measured in a scintillation counter (TopCount, Packard Instruments, Pangbourne, Berks, UK). Compounds for kinase assay were made up as 10 mM stocks in DMSO and diluted into 10% DMSO in assay buffer.

CDK1/cyclin B = target: T2, CDK1/cyclin B (Homo sapiens, UniProt P06493); experiment: Kinase assay, CDK1/cyclin B inhibition; assay type: biochemical
T2 construct: His6; made in house; host or cells: Sf9 insect cells (baculovirus)
Description: as §1

CDK4/cyclin D1 = target: T3, CDK4/cyclin D1 (Homo sapiens, UniProt P11802); experiment: Kinase assay, CDK4/cyclin D1 inhibition; assay type: biochemical
T3 construct: His6; made in house; host or cells: CDK4: Sf9 insect cells (baculovirus); cyclin D1: E. coli
Description: as §1

CDK7/cyclin H = target: T4, CDK7/cyclin H (Homo sapiens, UniProt P50613); experiment: Kinase assay, CDK7/cyclin H inhibition; assay type: biochemical
T4 construct: His6; made in house; host or cells: Sf9 insect cells (baculovirus)
Description: as §1

[1] = target: T5, cyclic AMP-dependent kinase (PKA) catalytic subunit (Homo sapiens, UniProt P17612); experiment: Kinase assay, PKA inhibition; assay type: biochemical
T5 construct: purchased Calbiochem 539487
Description: as §1

ERK2 = target: T6, ERK2 (Homo sapiens, UniProt P28482); experiment: Kinase assay, ERK-2 inhibition; assay type: biochemical
T6 construct: purchased Upstate Biotechnology
Description: Reactions were stopped on ice, followed by filtration through p81 filterplates or GF/C filterplates (for CDK4) (Whatman Polyfiltronics, Kent, UK), except for CDK7 where, after stopping reaction on ice, 10 μL of 10 mg/mL avidin was added to each well and further incubated for 10 min followed by filtration as per CDK2 assay. After washing 3 times with 75 mM aq orthophosphoric acid, plates were dried, scintillant added and incorporated radioactivity measured in a scintillation counter (TopCount, Packard Instruments, Pangbourne, Berks, UK). Compounds for kinase assay were made up as 10 mM stocks in DMSO and diluted into 10% DMSO in assay buffer.

[2] = system: Human tumour cell lines: A549, HT29, Saos-2; experiment: 72-h MTT cytotoxicity assay; assay type: cell-based; details: for IC50: read-out: In vitro anti-proliferative activity (72 h MTT IC50), 72 h MTT, human tumour cell lines A549, HT29, Saos-2
Description: In short: cells were seeded into 96-well plates according to doubling time and incubated overnight at 37° C. Test compounds were made up in DMSO and a 1/3 dilution series prepared in 100 μL cell media, added to cells (in triplicates) and incubated for 72 ho at 37° C. MTT was made up as a stock of 5 mg/mL in cell media and filter-sterilised. Media was removed from cells followed by a wash with 200 μL PBS. MTT solution was then added at 20 μL per well and incubated in the dark at 37° C. for 4 h. MTT solution was removed and cells again washed with 200 μL PBS. MTT dye was solubilised with 200 μL per well of DMSO with agitation.

[3] = Comparative in vitro metabolism assay (microsomal incubation); details: for % Drug after 30 min. microsomal incubation: 10 μM compound, 0.2 mg microsomal protein, NADPH; for A: % Compound remaining/% roscovitine remaining: ratio to roscovitine, 30 min microsomal incubation
Description: Calibration curves were prepared at 0, 1, and 10 μM in microsomes pre-incubated for 30 min and these were also treated with methanol containing olomoucine. All samples were then centrifuged and the supernatants analysed by liquid chromatography-mass spectrometry.
The chromatography column was a Supelco LC-ABZ, 50×4.6 mm, 5 μm zwitterionic column (Supelco Inc., Supelco Park, Bellefonte, Pa., USA). Gradient eluants consisted of methanol (A) and 0.1% formic acid in water (B). […] The flow rate was 1 mL/min throughout. […] Eluant from the detector passed, without splitting, into a Thermoquest LCQ ion trap mass spectrometer fitted with an electrospray source operated in positive mode. Mass spectrometer conditions were sheath gas 80, auxiliary gas 20 (both arbitrary units), capillary voltage 4 to 4.5 kV and heated capillary temperature 250 to 280° C. The mass range was 50-750. Scan time was controlled by the ion trap which was set to a maximum ion injection-time of 200 ms or the time required to inject 2×10^8 ions; for each scan the system automatically used whichever time was reached first.

[4] = system: representative panel of human transformed tumour cell lines; experiment: Average anti-proliferative activity in tumour cell line panel; assay type: cell-based; details: average over representative panel of human transformed tumour cell lines

T2 sequence (P06493 whole entry): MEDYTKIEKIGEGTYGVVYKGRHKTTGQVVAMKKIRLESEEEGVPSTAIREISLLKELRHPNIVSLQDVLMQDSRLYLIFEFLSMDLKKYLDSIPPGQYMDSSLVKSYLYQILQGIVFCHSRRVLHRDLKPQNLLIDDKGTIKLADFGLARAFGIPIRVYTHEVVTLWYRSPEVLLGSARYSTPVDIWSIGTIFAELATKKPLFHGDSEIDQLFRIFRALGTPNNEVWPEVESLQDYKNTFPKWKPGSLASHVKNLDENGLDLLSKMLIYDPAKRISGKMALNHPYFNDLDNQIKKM
T2 sequence (P14635 whole entry partner): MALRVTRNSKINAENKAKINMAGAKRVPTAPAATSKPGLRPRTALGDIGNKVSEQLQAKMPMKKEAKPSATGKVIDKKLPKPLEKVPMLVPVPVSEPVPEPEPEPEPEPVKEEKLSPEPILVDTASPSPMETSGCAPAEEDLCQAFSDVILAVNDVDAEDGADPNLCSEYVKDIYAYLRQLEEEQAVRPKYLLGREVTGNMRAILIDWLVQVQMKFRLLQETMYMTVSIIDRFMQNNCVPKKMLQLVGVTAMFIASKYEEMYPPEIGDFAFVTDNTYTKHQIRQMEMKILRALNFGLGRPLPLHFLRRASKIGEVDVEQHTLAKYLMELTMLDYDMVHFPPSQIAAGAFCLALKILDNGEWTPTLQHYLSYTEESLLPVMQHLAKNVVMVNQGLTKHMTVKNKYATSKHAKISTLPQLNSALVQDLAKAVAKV
T6 sequence (P28482 whole entry, species assumed): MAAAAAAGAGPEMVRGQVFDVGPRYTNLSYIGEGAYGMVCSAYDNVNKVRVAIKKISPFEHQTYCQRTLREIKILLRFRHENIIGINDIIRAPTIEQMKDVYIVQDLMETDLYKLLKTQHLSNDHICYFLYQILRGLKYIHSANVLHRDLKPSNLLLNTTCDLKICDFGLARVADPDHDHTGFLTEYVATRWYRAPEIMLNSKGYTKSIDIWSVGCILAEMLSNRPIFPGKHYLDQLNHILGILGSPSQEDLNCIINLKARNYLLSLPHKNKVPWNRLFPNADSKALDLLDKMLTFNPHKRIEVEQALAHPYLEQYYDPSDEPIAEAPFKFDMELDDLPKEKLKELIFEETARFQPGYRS
T4 sequence (P50613 whole entry): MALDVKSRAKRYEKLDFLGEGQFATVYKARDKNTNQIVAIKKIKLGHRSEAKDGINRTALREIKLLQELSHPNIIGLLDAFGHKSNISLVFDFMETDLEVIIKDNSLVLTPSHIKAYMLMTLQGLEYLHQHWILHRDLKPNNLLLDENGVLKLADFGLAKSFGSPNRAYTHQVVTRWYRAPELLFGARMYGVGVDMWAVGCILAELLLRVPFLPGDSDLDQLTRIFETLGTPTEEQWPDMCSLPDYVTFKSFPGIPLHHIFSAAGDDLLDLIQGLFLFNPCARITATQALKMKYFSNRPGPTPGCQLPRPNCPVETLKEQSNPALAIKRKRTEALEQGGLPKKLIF
T4 sequence (P51946 whole entry partner): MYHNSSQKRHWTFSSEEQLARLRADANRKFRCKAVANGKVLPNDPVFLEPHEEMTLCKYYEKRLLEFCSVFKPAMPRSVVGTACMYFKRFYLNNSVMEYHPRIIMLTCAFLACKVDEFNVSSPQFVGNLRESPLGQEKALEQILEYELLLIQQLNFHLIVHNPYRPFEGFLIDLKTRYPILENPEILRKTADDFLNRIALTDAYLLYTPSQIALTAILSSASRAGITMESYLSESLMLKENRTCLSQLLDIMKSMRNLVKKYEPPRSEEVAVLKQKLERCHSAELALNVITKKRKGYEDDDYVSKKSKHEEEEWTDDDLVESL
T3 sequence (P11802 whole entry): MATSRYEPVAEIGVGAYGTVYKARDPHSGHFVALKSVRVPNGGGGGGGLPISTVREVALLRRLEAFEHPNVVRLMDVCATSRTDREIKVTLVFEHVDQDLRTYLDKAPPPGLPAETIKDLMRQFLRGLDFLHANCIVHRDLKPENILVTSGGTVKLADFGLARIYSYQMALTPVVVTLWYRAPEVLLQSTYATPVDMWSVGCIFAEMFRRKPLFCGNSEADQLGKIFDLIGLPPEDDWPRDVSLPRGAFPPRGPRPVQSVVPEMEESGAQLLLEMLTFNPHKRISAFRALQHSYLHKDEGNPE
T3 sequence (P24385 whole entry partner): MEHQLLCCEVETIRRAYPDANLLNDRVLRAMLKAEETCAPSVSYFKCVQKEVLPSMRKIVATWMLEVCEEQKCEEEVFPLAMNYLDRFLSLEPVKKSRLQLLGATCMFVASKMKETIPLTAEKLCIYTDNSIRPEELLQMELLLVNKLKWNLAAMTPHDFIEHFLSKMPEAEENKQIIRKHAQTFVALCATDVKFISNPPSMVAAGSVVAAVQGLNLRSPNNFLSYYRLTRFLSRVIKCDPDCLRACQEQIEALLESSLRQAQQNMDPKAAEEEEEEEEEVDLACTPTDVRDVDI

| IC50 (CDK2/cyclin E) [µM] | IC50 (CDK1/cyclin B) [µM] | IC50 (CDK4/cyclin D1) [µM] | IC50 (CDK7/cyclin H) [µM] | IC50 [1] [µM] | IC50 (ERK2) [µM] | A × B (CDK2/cyclin E; comparative in vitro efficacy: metabolism ratio × CDK2 ratio) | B: IC50 CDK2 roscovitine/IC50 CDK2 compound (CDK2/cyclin E; ratio to roscovitine) | IC50 [4] [µM] | SMILES | IC50 [2] [µM] | C: IC50 cytotox. roscovitine/IC50 cytotox. compound ([2]; ratio to roscovitine) | % Drug after 30 min. microsomal incubation [3] [%] | A: % Compound remaining/% roscovitine remaining [3] |
| --- | --- | --- | --- | --- | --- | --- | --- | --- | --- | --- | --- | --- | --- |
| 2.8 | > 200 | 38 | 2.4 | > 200 | > 200 | – | – | – | CC[C@@H](Nc1nc(NCc2ccccn2)c2ncn(C(C)C)c2n1)C(O)C(C)(C)C (mixture of isomers) [(3RS,4R)-4-{9-Isopropyl-6-[(pyridin-2-ylmethyl)-amino]-9H-purin-2-ylamino}-2,2-dimethyl-hexan-3-ol] | 38 | – | – | – |
| 3.4 | 84 | 32 | 3.9 | > 200 | > 200 | – | – | – | CC[C@@H](Nc1nc(NCc2ccccn2)c2ncn(C(C)C)c2n1)C(O)C(C)C (mixture of isomers) [(3RS,4R)-4-{9-Isopropyl-6-[(pyridin-2-ylmethyl)-amino]-9H-purin-2-ylamino}-2-methyl-hexan-3-ol] | 23 | – | – | – |
| 0.77 | 35 | 20 | 1.2 | > 200 | 230 | – | – | – | CCC(O)[C@@H](CC)Nc1nc(NCc2ccccn2)c2ncn(C(C)C)c2n1 (mixture of isomers) [(3RS,4R)-4-{9-Isopropyl-6-[(pyridin-2-ylmethyl)-amino]-9H-purin-2-ylamino}-hexan-3-ol] | 19 | – | – | – |
| 1 | > 200 | 22 | 5.8 | > 200 | 137 | – | – | – | CC[C@H](Nc1nc(NCc2ccccn2)c2ncn(C(C)C)c2n1)C(O)C(C)(C)C (mixture of isomers) [(3RS,4S)-4-{9-Isopropyl-6-[(pyridin-2-ylmethyl)-amino]-9H-purin-2-ylamino}-2,2-dimethyl-hexan-3-ol] | 33 | – | – | – |
| 3.1 | > 200 | 49 | 3.3 | > 200 | > 200 | – | – | – | CC[C@H](Nc1nc(NCc2ccccn2)c2ncn(C(C)C)c2n1)C(O)C(C)C (mixture of isomers) [(3RS,4S)-4-{9-Isopropyl-6-[(pyridin-2-ylmethyl)-amino]-9H-purin-2-ylamino}-2-methyl-hexan-3-ol] | 26 | – | – | – |
| 0.42 | 40 | 24 | 2.6 | > 200 | 80 | – | – | – | CCC(O)[C@H](CC)Nc1nc(NCc2ccccn2)c2ncn(C(C)C)c2n1 (mixture of isomers) [(3RS,4S)-4-{9-Isopropyl-6-[(pyridin-2-ylmethyl)-amino]-9H-purin-2-ylamino}-hexan-3-ol] | 27 | – | – | – |
| 0.05 | 8.9 | 18 | 2.6 | > 200 | 77 | 1.9 | 1.9 | – | CC[C@H](Nc1nc(NCc2ccccn2)c2ncn(C(C)C)c2n1)[C@@H](C)O [(2R3S)-3-{9-Isopropyl-6-[(pyridin-2-ylmethyl)-amino]-9H-purin-2-ylamino}-pentan-2-ol] | 9.8 | 1.2 | 33 | 1.0 |
| 0.52 | 39 | 48 | 0.55 | > 200 | 73 | – | – | – | CC[C@@H](Nc1nc(NCc2ccccn2)c2ncn(C(C)C)c2n1)[C@H](C)O [(2S3R)-3-{9-Isopropyl-6-[(pyridin-2-ylmethyl)-amino]-9H-purin-2-ylamino}-pentan-2-ol] | 12 | – | – | – |
| – | – | – | – | – | – | – | – | – | CC[C@H](CO)Nc1nc(NCc2ccccc2)c2ncn(C(C)C)c2n1 [Roscovitine, reference compound] | – | – | 33 | 1.0 |
| – | – | – | – | – | – | – | – | > 50 | CC[C@@H](Nc1nc(NCc2ccccc2)c2ncn(C(C)C)c2n1)C(=O)O [carboxyl derivative, (2R)-2-(6-Benzylamino-9-isopropyl-9H-purin-2-ylamino)-butyric acid] | – | – | – | – |

| SMILES | IC50 (CDK2/cyclin E) [µM] | IC50 (CDK1/cyclin B) [µM] | IC50 (CDK4/cyclin D1) [µM] | IC50 (CDK7/cyclin H) [µM] | IC50 [1] [µM] | IC50 (ERK2) [µM] | A × B (CDK2/cyclin E; comparative in vitro efficacy: metabolism ratio × CDK2 ratio) | B: IC50 CDK2 roscovitine/IC50 CDK2 compound (CDK2/cyclin E; ratio to roscovitine) | IC50 [4] [µM] | IC50 [2] [µM] | C: IC50 cytotox. roscovitine/IC50 cytotox. compound ([2]; ratio to roscovitine) | % Drug after 30 min. microsomal incubation [3] [%] | A: % Compound remaining/% roscovitine remaining [3] |
| --- | --- | --- | --- | --- | --- | --- | --- | --- | --- | --- | --- | --- | --- |
| CC[C@@H](Nc1nc(NCc2ccccn2)c2ncn(C(C)C)c2n1)C(C)(C)O [(3R)-3-{9-Isopropyl-6-[(pyridin-2-ylmethyl)-amino]-9H-purin-2-ylamino}-2-methyl-pentan-2-ol] | 0.48 | 44 | 18 | 4.2 | > 200 | > 200 | – | – | – | 35 | – | – | – |
